Test results published in ChEMBL document CHEMBL1126980, “New, potent anthelmintic and acaricidal agents: 4-deoxy-4-thio-substituted avermectin derivatives” (Bioorg Med Chem Lett, 1993).
Values after ≈ are worked out from the molar mass of the structure shown.

How the values were obtained:
[1] = tested on: Caenorhabditis elegans; experiment: Tested in vitro for the biological efficacy using Caenorhabditis elegans binding assay; assay type: functional, organism-based
[2] = tested on: Tetranychus urticae; experiment: Tested for acaricidal efficacy using a Tetranychus urticae (two-spotted spider mite, TSSM) contact assay; assay type: functional; design: concentration or dose not given beside the values
[3] = tested on: Artemia salina; experiment: Tested in vitro for the biological efficacy using Artemia salina (brine shrimp) immobilization assay; assay type: functional
[4] = tested on: Trichostrongylus colubriformis; experiment: Tested in vivo for the biological efficacy using Trichostrongylus colubriformis gerbil assay; assay type: functional
[5] = tested on: Ovis aries; experiment: Tested for the anthelmintic efficacy against Trichostrongylus axei at 0.1 mg/kg; range is 91-100%; assay type: functional
[6] = tested on: Ovis aries; experiment: Tested for the anthelmintic efficacy against Oesphagostomum columbianum at 0.1 mg/kg; range is 91-100%; assay type: functional
[7] = tested on: Ovis aries; experiment: Tested for anthelmintic efficacy against Haemonchus contortus at 0.1 mg/kg; range is 91-100%; assay type: functional
[8] = tested on: Ovis aries; experiment: Tested for the anthelmintic efficacy against Cooperia curticei at 0.1 mg/kg; range is 91-100%; assay type: functional
[9] = tested on: Ovis aries; experiment: Tested for the anthelmintic efficacy against Ostertagia circumcincta at 0.1 mg/kg; range is 91-100%; assay type: functional
[10] = tested on: Ovis aries; experiment: Tested for the anthelmintic efficacy against Trichostrongylus colubriformis at 0.1 mg/kg; range is 91-100%; assay type: functional

Row | Compound | IC50 [1] | Mortality [2] | IC100 [3] | ED85 [4] | Reduction [5] | Reduction [6] | Reduction [7] | Reduction [8] | Reduction [9] | Reduction [10]
1 | CCC(C)[C@H]1O[C@]2(CC[C@@H]1C)C[C@@H]1C[C@@H](C/C=C(\C)[C@@H](O[C@H]3C[C@H](OC)[C@@H](O[C@H]4C[C@H](OC)[C@H]([S+]([O-])CCO)[C@H](C)O4)[C@H](C)O3)[C@@H](C)/C=C/C=C3\CO[C@@H]4[C@H](O)C(C)=C[C@@H](C(=O)O1)[C@]34O)O2 (some centres not stated) | 0.188 ng/mL (≈ 0.198 nM) | 31% | 870 ng/mL | 0.25 mg/kg |  |  |  |  |  | 
2 | CCC(C)[C@H]1O[C@]2(C=C[C@@H]1C)C[C@@H]1C[C@@H](C/C=C(\C)[C@@H](O[C@H]3C[C@H](OC)[C@@H](O[C@H]4C[C@H](OC)[C@@H](SCC(C)O)[C@H](C)O4)[C@H](C)O3)[C@@H](C)/C=C/C=C3\CO[C@@H]4[C@H](O)C(C)=C[C@@H](C(=O)O1)[C@]34O)O2 (some centres not stated) | 0.153 ng/mL (≈ 0.162 nM) | 88% | 870 ng/mL | 0.125 mg/kg |  |  |  |  |  | 
3 | CCC(C)[C@H]1O[C@]2(C=C[C@@H]1C)C[C@@H]1C[C@@H](C/C=C(\C)[C@@H](O[C@H]3C[C@H](OC)[C@@H](O[C@H]4C[C@H](OC)[C@@H](SCCCO)[C@H](C)O4)[C@H](C)O3)[C@@H](C)/C=C/C=C3\CO[C@@H]4[C@H](O)C(C)=C[C@@H](C(=O)O1)[C@]34O)O2 (some centres not stated) | 0.153 ng/mL (≈ 0.162 nM) | 53% | 870 ng/mL | 0.25 mg/kg |  |  |  |  |  | 
4 | CCC(C)[C@H]1O[C@]2(CC[C@@H]1C)C[C@@H]1C[C@@H](C/C=C(\C)[C@@H](O[C@H]3C[C@H](OC)[C@@H](O[C@H]4C[C@H](OC)[C@H](S(=O)(=O)CCO)[C@H](C)O4)[C@H](C)O3)[C@@H](C)/C=C/C=C3\CO[C@@H]4[C@H](O)C(C)=C[C@@H](C(=O)O1)[C@]34O)O2 (some centres not stated) | 0.119 ng/mL (≈ 0.123 nM) | 48% | 650 ng/mL | 0.125 mg/kg | 91% | 91% | 91% | 91% | 91% | 91%
5 | CCC(C)[C@H]1O[C@]2(C=C[C@@H]1C)C[C@@H]1C[C@@H](C/C=C(\C)[C@@H](O[C@H]3C[C@H](OC)[C@@H](O[C@H]4C[C@H](OC)[C@@H]([S+]([O-])CCO)[C@H](C)O4)[C@H](C)O3)[C@@H](C)/C=C/C=C3\CO[C@@H]4[C@H](O)C(C)=C[C@@H](C(=O)O1)[C@]34O)O2 (some centres not stated) | 0.469 ng/mL (≈ 0.494 nM) | 69% | 870 ng/mL | 0.063 mg/kg |  |  |  |  |  | 
6 | CCC(C)[C@H]1O[C@]2(C=C[C@@H]1C)C[C@@H]1C[C@@H](C/C=C(\C)[C@@H](O[C@H]3C[C@H](OC)[C@@H](O[C@H]4C[C@H](OC)[C@H]([S+]([O-])CCO)[C@H](C)O4)[C@H](C)O3)[C@@H](C)/C=C/C=C3\CO[C@@H]4[C@H](O)C(C)=C[C@@H](C(=O)O1)[C@]34O)O2 (some centres not stated) | > 1.27 ng/mL | 13% | 1300 ng/mL | 0.125 mg/kg |  |  |  |  |  | 
7 | CCC(C)[C@H]1O[C@]2(C=C[C@@H]1C)C[C@@H]1C[C@@H](C/C=C(\C)[C@@H](O[C@H]3C[C@H](OC)[C@@H](O[C@H]4C[C@H](OC)[C@@H](SCCNC(C)=O)[C@H](C)O4)[C@H](C)O3)[C@@H](C)/C=C/C=C3\CO[C@@H]4[C@H](O)C(C)=C[C@@H](C(=O)O1)[C@]34O)O2 (some centres not stated) | 0.165 ng/mL (≈ 0.169 nM) | 63% | 870 ng/mL | 0.063 mg/kg |  |  |  |  |  | 
8 | CCC(C)[C@H]1O[C@]2(C=C[C@@H]1C)C[C@@H]1C[C@@H](C/C=C(\C)[C@@H](O[C@H]3C[C@H](OC)[C@H](SCCO)[C@H](C)O3)[C@@H](C)/C=C/C=C3\CO[C@@H]4[C@H](O)C(C)=C[C@@H](C(=O)O1)[C@]34O)O2 (some centres not stated) |  | 94% | 870 ng/mL | 0.063 mg/kg |  |  |  |  |  | 
9 | CCC(C)[C@H]1O[C@]2(C=C[C@@H]1C)C[C@@H]1C[C@@H](C/C=C(\C)[C@@H](O[C@H]3C[C@H](OC)[C@H](SC)[C@H](C)O3)[C@@H](C)/C=C/C=C3\CO[C@@H]4[C@H](O)C(C)=C[C@@H](C(=O)O1)[C@]34O)O2 (some centres not stated) | 0.422 ng/mL (≈ 0.556 nM) | 100% | 6930 ng/mL | 0.125 mg/kg |  |  |  |  |  | 
10 | CCC(C)[C@H]1O[C@]2(C=C[C@@H]1C)C[C@@H]1C[C@@H](C/C=C(\C)[C@@H](O[C@H]3C[C@H](OC)[C@@H](O[C@H]4C[C@H](OC)[C@@H](S(=O)(=O)CC)[C@H](C)O4)[C@H](C)O3)[C@@H](C)/C=C/C=C3\CO[C@@H]4[C@H](O)C(C)=C[C@@H](C(=O)O1)[C@]34O)O2 (some centres not stated) | 0.123 ng/mL (≈ 0.13 nM) | 64% | 870 ng/mL | 0.063 mg/kg |  |  |  |  |  | 
11 | CCC(C)[C@H]1O[C@]2(C=C[C@@H]1C)C[C@@H]1C[C@@H](C/C=C(\C)[C@@H](O[C@H]3C[C@H](OC)[C@@H](O[C@H]4C[C@H](OC)[C@H](SCC(C)O)[C@H](C)O4)[C@H](C)O3)[C@@H](C)/C=C/C=C3\CO[C@@H]4[C@H](O)C(C)=C[C@@H](C(=O)O1)[C@]34O)O2 (some centres not stated) | 0.216 ng/mL (≈ 0.228 nM) | 89% | 870 ng/mL | 0.063 mg/kg |  |  |  |  |  | 
12 | CCC(C)[C@H]1O[C@]2(C=C[C@@H]1C)C[C@@H]1C[C@@H](C/C=C(\C)[C@@H](O[C@H]3C[C@H](OC)[C@@H](O[C@H]4C[C@H](OC)[C@@H](S(=O)(=O)CCO)[C@H](C)O4)[C@H](C)O3)[C@@H](C)/C=C/C=C3\CO[C@@H]4[C@H](O)C(C)=C[C@@H](C(=O)O1)[C@]34O)O2 (some centres not stated) | 0.351 ng/mL (≈ 0.364 nM) | 64% | 870 ng/mL | 0.063 mg/kg |  |  |  |  |  | 
13 | CCC(C)[C@H]1O[C@]2(CC[C@@H]1C)C[C@@H]1C[C@@H](C/C=C(\C)[C@@H](O[C@H]3C[C@H](OC)[C@@H](O[C@H]4C[C@H](OC)[C@H](S(C)(=O)=O)[C@H](C)O4)[C@H](C)O3)[C@@H](C)/C=C/C=C3\CO[C@@H]4[C@H](O)C(C)=C[C@@H](C(=O)O1)[C@]34O)O2 (some centres not stated) | 0.084 ng/mL (≈ 0.0896 nM) | 64% | 870 ng/mL | 0.125 mg/kg |  |  |  |  |  | 
14 | CCC(C)[C@H]1O[C@]2(C=C[C@@H]1C)C[C@@H]1C[C@@H](C/C=C(\C)[C@@H](O[C@H]3C[C@H](OC)[C@@H](O[C@H]4C[C@H](OC)[C@H](S(=O)(=O)CC)[C@H](C)O4)[C@H](C)O3)[C@@H](C)/C=C/C=C3\CO[C@@H]4[C@H](O)C(C)=C[C@@H](C(=O)O1)[C@]34O)O2 (some centres not stated) | 0.128 ng/mL (≈ 0.135 nM) | 68% | 650 ng/mL | 0.031 mg/kg |  |  |  |  |  | 
15 | CCC(C)[C@H]1O[C@]2(C=C[C@@H]1C)C[C@@H]1C[C@@H](C/C=C(\C)[C@@H](O[C@H]3C[C@H](OC)[C@@H](O[C@H]4C[C@H](OC)[C@H](S(C)(=O)=O)[C@H](C)O4)[C@H](C)O3)[C@@H](C)/C=C/C=C3\CO[C@@H]4[C@H](O)C(C)=C[C@@H](C(=O)O1)[C@]34O)O2 (some centres not stated) | 0.132 ng/mL (≈ 0.141 nM) | 45% | 430 ng/mL | 0.063 mg/kg | 91% | 91% | 91% | 91% | 91% | 91%
16 | CCC(C)[C@H]1O[C@]2(C=C[C@@H]1C)C[C@@H]1C[C@@H](C/C=C(\C)[C@@H](O[C@H]3C[C@H](OC)[C@@H](O[C@H]4C[C@H](OC)[C@H]([S+](C)[O-])[C@H](C)O4)[C@H](C)O3)[C@@H](C)/C=C/C=C3\CO[C@@H]4[C@H](O)C(C)=C[C@@H](C(=O)O1)[C@]34O)O2 (some centres not stated) | 0.262 ng/mL (≈ 0.285 nM) | 64% | 870 ng/mL | 0.031 mg/kg | 91% | 91% | 91% | 91% | 91% | 91%
17 | CCC(C)[C@H]1O[C@]2(C=C[C@@H]1C)C[C@@H]1C[C@@H](C/C=C(\C)[C@@H](O[C@H]3C[C@H](OC)[C@@H](O[C@H]4C[C@H](OC)[C@@H]([S+](C)[O-])[C@H](C)O4)[C@H](C)O3)[C@@H](C)/C=C/C=C3\CO[C@@H]4[C@H](O)C(C)=C[C@@H](C(=O)O1)[C@]34O)O2 (some centres not stated) |  |  | 430 ng/mL | 0.016 mg/kg | 91% | 91% | 91% | 91% | 91% | 91%
18 | CCC(C)[C@H]1O[C@]2(CC[C@@H]1C)C[C@@H]1C[C@@H](C/C=C(\C)[C@@H](O[C@H]3C[C@H](OC)[C@@H](O[C@H]4C[C@H](OC)[C@H]([S+](C)[O-])[C@H](C)O4)[C@H](C)O3)[C@@H](C)/C=C/C=C3\CO[C@@H]4[C@H](O)C(C)=C[C@@H](C(=O)O1)[C@]34O)O2 (some centres not stated) | 0.108 ng/mL (≈ 0.117 nM) | 77% | 870 ng/mL | 0.063 mg/kg |  |  |  |  |  | 
19 | CCC(C)[C@H]1O[C@]2(C=C[C@@H]1C)C[C@@H]1C[C@@H](C/C=C(\C)[C@@H](O[C@H]3C[C@H](OC)[C@@H](O)[C@H](C)O3)[C@@H](C)/C=C/C=C3\CO[C@@H]4[C@H](O)C(C)=C[C@@H](C(=O)O1)[C@]34O)O2 (some centres not stated) [AVERMECTIN MS] | 0.81 ng/mL (≈ 1.11 nM) | 93% | 430 ng/mL | 0.075 mg/kg |  |  |  |  |  | 
20 | CCC(C)[C@H]1O[C@]2(C=C[C@@H]1C)C[C@@H]1C[C@@H](C/C=C(\C)[C@@H](O[C@H]3C[C@H](OC)[C@@H](O[C@H]4C[C@H](OC)[C@@H](O)[C@H](C)O4)[C@H](C)O3)[C@@H](C)/C=C/C=C3\CO[C@@H]4[C@H](O)C(C)=C[C@@H](C(=O)O1)[C@]34O)O2 (some centres not stated) [AVERMECTIN] | 0.073 ng/mL (≈ 0.0836 nM) | 95% | 400 ng/mL | 0.031 mg/kg | 91% | 91% | 91% | 91% | 91% | 91%
